# PMC11822212, “High-throughput screening identifies Aurora kinase B as a critical therapeutic target for Merkel cell carcinoma” (Nature Communications, 2025)
# Structures can show the parent of a compound that is named as a salt. Where two headings read alike, the source gives them in different places.
# What was measured:
# Test in all cases: qHTS cell viability (CellTiter-Glo, 72 h; primary and follow-up small molecule screen)
# Format in all cases: cell-based, human
# MCC13 cells (VN-MCC) = test system: MCC13 cells (VN-MCC)
# MCC26 cells (VN-MCC) = test system: MCC26 cells (VN-MCC)
# UISO cells (VN-MCC) = test system: UISO cells (VN-MCC)
# WAGA cells (VP-MCC) = test system: WAGA cells (VP-MCC)
# MKL-1 cells (VP-MCC) = test system: MKL-1 cells (VP-MCC)
# MKL-2 cells (VP-MCC) = test system: MKL-2 cells (VP-MCC)
# [1] = follow-up screen, MCC13, replicate 1
# [2] = follow-up screen, MCC13, replicate 2
# [3] = follow-up screen, MCC13, replicate 3
# [4] = follow-up screen, MCC26, replicate 1
# [5] = follow-up screen, MCC26, replicate 2
# [6] = follow-up screen, MCC26, replicate 3
# [7] = follow-up screen, UISO, replicate 1
# [8] = follow-up screen, UISO, replicate 2
# [9] = follow-up screen, UISO, replicate 3
# [10] = follow-up screen, WAGA, replicate 1
# [11] = follow-up screen, WAGA, replicate 2
# [12] = follow-up screen, WAGA, replicate 3
# [13] = follow-up screen, MKL-1, replicate 1
# [14] = follow-up screen, MKL-1, replicate 2
# [15] = follow-up screen, MKL-1, replicate 3
# [16] = follow-up screen, MKL-2, replicate 1
# [17] = follow-up screen, MKL-2, replicate 2
# [18] = follow-up screen, MKL-2, replicate 3
SMILES,Area under the dose-response curve (AUC) MCC13 Replicate 1 (MCC13 cells (VN-MCC); [1]),Area under the dose-response curve (AUC) MCC13 Replicate 2 (MCC13 cells (VN-MCC); [2]),Area under the dose-response curve (AUC) MCC13 Replicate 3 (MCC13 cells (VN-MCC); [3]),Area under the dose-response curve (AUC) MCC26 Replicate 1 (MCC26 cells (VN-MCC); [4]),Area under the dose-response curve (AUC) MCC26 Replicate 2 (MCC26 cells (VN-MCC); [5]),Area under the dose-response curve (AUC) MCC26 Replicate 3 (MCC26 cells (VN-MCC); [6]),Area under the dose-response curve (AUC) UISO Replicate 1 (UISO cells (VN-MCC); [7]),Area under the dose-response curve (AUC) UISO Replicate 2 (UISO cells (VN-MCC); [8]),Area under the dose-response curve (AUC) UISO Replicate 3 (UISO cells (VN-MCC); [9]),Area under the dose-response curve (AUC) WAGA Replicate 1 (WAGA cells (VP-MCC); [10]),Area under the dose-response curve (AUC) WAGA Replicate 2 (WAGA cells (VP-MCC); [11]),Area under the dose-response curve (AUC) WAGA Replicate 3 (WAGA cells (VP-MCC); [12]),Area under the dose-response curve (AUC) MKL-1 Replicate 1 (MKL-1 cells (VP-MCC); [13]),Area under the dose-response curve (AUC) MKL-1 Replicate 2 (MKL-1 cells (VP-MCC); [14]),Area under the dose-response curve (AUC) MKL-1 Replicate 3 (MKL-1 cells (VP-MCC); [15]),Area under the dose-response curve (AUC) MKL-2 Replicate 1 (MKL-2 cells (VP-MCC); [16]),Area under the dose-response curve (AUC) MKL-2 Replicate 2 (MKL-2 cells (VP-MCC); [17]),Area under the dose-response curve (AUC) MKL-2 Replicate 3 (MKL-2 cells (VP-MCC); [18]),Area under the dose-response curve (AUC) MCC13 Replicate 1 (MCC13 cells (VN-MCC)),Area under the dose-response curve (AUC) MCC13 Replicate 2 (MCC13 cells (VN-MCC)),also measured
CN(C(Cc1ccc(O[S+](=O)([O-])c2cccc3cnccc23)cc1)C(=O)N1CCN(c2ccccc2)CC1)[S+](=O)([O-])c1cccc2cnccc12 (stereo not drawn) [KN-62],505.2,474.1,504.9,447.5,438.4,461.3,473.7,471.7,409.6,521.5,471.3,468.9,492.0,481.7,479.5,465.4,466.3,472.5,–,–,–
O=c1cc(-c2ccc(O)c(O)c2)oc2cc(O)cc(O)c12 [Luteolin],522.6,523.6,493.6,469.7,436.1,492.5,505.5,498.3,457.3,542.7,525.5,485.9,484.8,451.1,471.1,469.9,500.3,460.5,–,–,–
CN(C)c1ccc(C(=C2C=CC(=[N+](C)C)C=C2)c2ccccc2)cc1.CN(C)c1ccc(C(=C2C=CC(=[N+](C)C)C=C2)c2ccccc2)cc1.O=C(O)C(=O)O.O=C([O-])C(=O)O.O=C([O-])C(=O)O [Malachite green oxalate],–,–,–,–,–,–,–,–,–,–,–,–,–,–,–,–,–,–,284.7,297.6,Area under the dose-response curve (AUC) MCC13 Replicate 3 (MCC13 cells (VN-MCC)): 312.3; Area under the dose-response curve (AUC) MCC26 Replicate 1 (MCC26 cells (VN-MCC)): 302.0; Area under the dose-response curve (AUC) MCC26 Replicate 2 (MCC26 cells (VN-MCC)): 333.8; Area under the dose-response curve (AUC) MCC26 Replicate 3 (MCC26 cells (VN-MCC)): 303.0; Area under the dose-response curve (AUC) UISO Replicate 1 (UISO cells (VN-MCC)): 285.6; Area under the dose-response curve (AUC) UISO Replicate 2 (UISO cells (VN-MCC)): 315.1; Area under the dose-response curve (AUC) UISO Replicate 3 (UISO cells (VN-MCC)): 271.1; Area under the dose-response curve (AUC) WAGA Replicate 1 (WAGA cells (VP-MCC)): 353.3; Area under the dose-response curve (AUC) WAGA Replicate 2 (WAGA cells (VP-MCC)): 347.4; Area under the dose-response curve (AUC) WAGA Replicate 3 (WAGA cells (VP-MCC)): 369.9; Area under the dose-response curve (AUC) MKL-1 Replicate 1 (MKL-1 cells (VP-MCC)): 266.3; Area under the dose-response curve (AUC) MKL-1 Replicate 2 (MKL-1 cells (VP-MCC)): 258.0; Area under the dose-response curve (AUC) MKL-1 Replicate 3 (MKL-1 cells (VP-MCC)): 280.5; Area under the dose-response curve (AUC) MKL-2 Replicate 1 (MKL-2 cells (VP-MCC)): 272.5; Area under the dose-response curve (AUC) MKL-2 Replicate 2 (MKL-2 cells (VP-MCC)): 267.6; Area under the dose-response curve (AUC) MKL-2 Replicate 3 (MKL-2 cells (VP-MCC)): 282.8
CN(C)c1ccc(C(=C2C=CC(=[N+](C)C)C=C2)c2ccc(N(C)C)cc2)cc1.[Cl-] [Methylrosaniline chloride],–,–,–,–,–,–,–,–,–,–,–,–,–,–,–,–,–,–,337.3,353.3,Area under the dose-response curve (AUC) MCC13 Replicate 3 (MCC13 cells (VN-MCC)): 322.2; Area under the dose-response curve (AUC) MCC26 Replicate 1 (MCC26 cells (VN-MCC)): 379.4; Area under the dose-response curve (AUC) MCC26 Replicate 2 (MCC26 cells (VN-MCC)): 341.7; Area under the dose-response curve (AUC) MCC26 Replicate 3 (MCC26 cells (VN-MCC)): 374.7; Area under the dose-response curve (AUC) UISO Replicate 1 (UISO cells (VN-MCC)): 320.8; Area under the dose-response curve (AUC) UISO Replicate 2 (UISO cells (VN-MCC)): 340.7; Area under the dose-response curve (AUC) UISO Replicate 3 (UISO cells (VN-MCC)): 296.1; Area under the dose-response curve (AUC) WAGA Replicate 1 (WAGA cells (VP-MCC)): 370.0; Area under the dose-response curve (AUC) WAGA Replicate 2 (WAGA cells (VP-MCC)): 348.5; Area under the dose-response curve (AUC) WAGA Replicate 3 (WAGA cells (VP-MCC)): 356.4; Area under the dose-response curve (AUC) MKL-1 Replicate 1 (MKL-1 cells (VP-MCC)): 316.1; Area under the dose-response curve (AUC) MKL-1 Replicate 2 (MKL-1 cells (VP-MCC)): 287.7; Area under the dose-response curve (AUC) MKL-1 Replicate 3 (MKL-1 cells (VP-MCC)): 301.6; Area under the dose-response curve (AUC) MKL-2 Replicate 1 (MKL-2 cells (VP-MCC)): 279.9; Area under the dose-response curve (AUC) MKL-2 Replicate 2 (MKL-2 cells (VP-MCC)): 290.8; Area under the dose-response curve (AUC) MKL-2 Replicate 3 (MKL-2 cells (VP-MCC)): 309.2
O=C1c2c(O)ccc(O)c2C(=O)c2c(NCCNCCO)ccc(NCCNCCO)c21 [Mitoxantrone dihydrochloride],–,–,–,–,–,–,–,–,–,–,–,–,–,–,–,–,–,–,292.1,295.3,Area under the dose-response curve (AUC) MCC13 Replicate 3 (MCC13 cells (VN-MCC)): 315.4; Area under the dose-response curve (AUC) MCC26 Replicate 1 (MCC26 cells (VN-MCC)): 322.6; Area under the dose-response curve (AUC) MCC26 Replicate 2 (MCC26 cells (VN-MCC)): 335.6; Area under the dose-response curve (AUC) MCC26 Replicate 3 (MCC26 cells (VN-MCC)): 279.8; Area under the dose-response curve (AUC) UISO Replicate 1 (UISO cells (VN-MCC)): 188.5; Area under the dose-response curve (AUC) UISO Replicate 2 (UISO cells (VN-MCC)): 205.7; Area under the dose-response curve (AUC) UISO Replicate 3 (UISO cells (VN-MCC)): 190.2; Area under the dose-response curve (AUC) WAGA Replicate 1 (WAGA cells (VP-MCC)): 153.5; Area under the dose-response curve (AUC) WAGA Replicate 2 (WAGA cells (VP-MCC)): 170.4; Area under the dose-response curve (AUC) WAGA Replicate 3 (WAGA cells (VP-MCC)): 183.6; Area under the dose-response curve (AUC) MKL-1 Replicate 1 (MKL-1 cells (VP-MCC)): 180.6; Area under the dose-response curve (AUC) MKL-1 Replicate 2 (MKL-1 cells (VP-MCC)): 178.5; Area under the dose-response curve (AUC) MKL-1 Replicate 3 (MKL-1 cells (VP-MCC)): 172.4; Area under the dose-response curve (AUC) MKL-2 Replicate 1 (MKL-2 cells (VP-MCC)): 203.7; Area under the dose-response curve (AUC) MKL-2 Replicate 2 (MKL-2 cells (VP-MCC)): 186.2; Area under the dose-response curve (AUC) MKL-2 Replicate 3 (MKL-2 cells (VP-MCC)): 247.3
COc1ccc(OC)c(-c2nnc3ccc(-c4ccc(OC)c(O[C@@H]5CCOC5)c4)nn23)c1 [NCGC00168459-01],471.2,476.6,471.3,450.8,439.4,478.6,435.8,424.6,430.2,480.8,429.3,424.9,460.8,464.3,463.4,463.7,433.6,459.9,–,–,–
